According to patent publication US20260250278A1, “PHENYL-SUBSTITUTED DIHYDRONAPHTHYRIDINE COMPOUNDS, AND PREPARATION AND USE THEREOF” (SUZHONG PHARMACEUTICAL GROUP CO., LTD., priority 2022, published 2026):

Key:
[1] = Pharmacokinetic test of mice (intravenous administration); type: in vivo; settings: mouse, plasma; CD1 mice, intravenous 1 mg/kg
Procedure: This experiment was intended to evaluate a pharmacokinetic behavior of a compound after intravenous injection or intragastric administration in the mice. Intravenous injection administration: a test compound was prepared into 0.2 mg/mL clear solution, a solvent was 10% ethanol/40% polyethylene glycol 400/50% ultrapure water, and after administration, plasma was collected 0.083 hour, 0.25 hour, 0.5 hour, 1 hour, 2 hours, 4 hours, 8 hours, 24 hours and 48 hours later.
(§1) A concentration of the test compound in the plasma was determined by high-performance liquid chromatography-tandem mass spectrometry (LC-MS/MS). Retention time, chromatogram collection and chromatogram integration of compounds and internal standards were treated by software Analyst (Applied Biosystems), and data statistics was treated by software Analyst (Applied Biosystems).
(§2) A plasma concentration was treated by a non-atrioventricular model of Winnonlin™ Version 6.1 (Pharsight, Mountain View, CA) pharmacokinetic software, and pharmacokinetic parameters were calculated by a linear logarithmic trapezoid method.

CYP3A4 = CYP3A4 (Homo sapiens, UniProt P08684); experiment: biochemical; type: in vitro ADME
[2] = Pharmacokinetic test of rats (intravenous and intragastric administration); type: in vivo; settings: SD rats
Procedure: This experiment was intended to evaluate a pharmacokinetic behavior of an implementing compound after intravenous injection or intragastric administration in the rats. Intravenous injection administration: a test compound was prepared into 0.2 mg/mL clear solution, a solvent was 10% ethanol, 40% polyethylene glycol 400 and 50% water, and after administration, plasma was collected 0.083 hour, 0.25 hour, 0.5 hour, 1 hour, 2 hours, 4 hours, 8 hours and 24 hours later. Intragastric administration: a test compound was prepared into 1 mg/mL clear solution, a solvent was 10% ethanol/40% polyethylene glycol 400/50% water, and after administration, plasma was collected 0.25 hour, 0.5 hour, 1 hour, 2 hours, 4 hours, 8 hours and 24 hours later.
as §1, §2
Pharmacokinetic parameters of the compounds in the rats with an intravenous injection dose of 1 mg/kg and an intragastric and oral dose of 5 mg/kg were as shown in Table 20 below.

[3] = rat, plasma, intragastric and oral administration 5 mg/kg
[4] = rat, plasma, intravenous 1 mg/kg

CYP3A4, sequence (P08684 2-503 limits assumed): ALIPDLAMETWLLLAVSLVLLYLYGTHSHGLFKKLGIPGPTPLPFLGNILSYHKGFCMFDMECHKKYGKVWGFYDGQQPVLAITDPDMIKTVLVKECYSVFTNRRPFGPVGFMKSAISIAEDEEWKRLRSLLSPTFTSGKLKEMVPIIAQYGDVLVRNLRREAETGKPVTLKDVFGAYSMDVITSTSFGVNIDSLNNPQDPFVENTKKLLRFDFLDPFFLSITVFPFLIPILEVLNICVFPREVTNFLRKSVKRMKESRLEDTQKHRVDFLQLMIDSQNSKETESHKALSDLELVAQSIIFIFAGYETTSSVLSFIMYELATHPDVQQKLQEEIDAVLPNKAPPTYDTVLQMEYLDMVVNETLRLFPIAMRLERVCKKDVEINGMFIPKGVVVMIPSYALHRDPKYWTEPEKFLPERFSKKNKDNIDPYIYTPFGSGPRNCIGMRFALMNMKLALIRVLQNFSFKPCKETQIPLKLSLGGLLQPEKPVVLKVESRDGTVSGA

| AUC(0-t) [1] | IC50 (CYP3A4; CYP3A4-5M IC50, human CYP3A4, CYP3A4-5M) | IC50 (CYP3A4; CYP3A4-5T IC50, human CYP3A4, CYP3A4-5T) | F ([2]; intragastric and oral administration 5 mg/kg) | AUC(0-t) [2, 3] | Cmax [2, 3] | AUC(0-t) [2, 4] | clearance [2, 4] | half-life [2, 4] | Compound |
| --- | --- | --- | --- | --- | --- | --- | --- | --- | --- |
| 2.55 µg·h/mL | – | – | – | – | – | – | – | – | CCOc1nc2ccsc2c2c1[C@H](c1ccc(C#N)cc1OC)C(C(N)=O)=C(C)N2 [Example 38, (S)-6-(4-cyano-2-methoxyphenyl)-5-ethoxy-8-methyl-6,9-dihydrothieno[3,2-h][1,6]naphthyridine-7-formamide] |
| 142 µg·h/mL | 9.98 µM | 8.02 µM | 60.3% | 307 µg·h/mL | 23800 ng/mL | 91.2 µg·h/mL | 0.34 mL/min/kg | 9.62 h | CCOc1ncc(C)c2c1[C@H](c1ccc(C#N)cc1OC)C(C(N)=O)=C(C)N2 [Finerenone, reference compound] |
